Experiments:
[1] = tested on: Plasmodium berghei; experiment: In vivo antimalarial activity against Plasmodium berghei infected mice (Mus musculus) at 640 mg/kg subcutaneous single dose; format: functional
[2] = tested on: Plasmodium berghei; experiment: In vivo antimalarial activity against Plasmodium berghei infected mice (Mus musculus) at 640 mg/kg subcutaneous single dose; NC=non-curative; format: functional, organism-based; set-up: dose 640 mg/kg

## Cc1cc(C)c2nc(-c3ccc(Cl)cc3)cc(C(O)C3CCCCN3)c2c1 (stereo unspecified)
[1]
  MfI: 0.03

## Cc1ccc(-c2cc(C(O)C3CCCCN3)c3cc(C)cc(C)c3n2)cc1 (stereo unspecified)
[1]
  MfI: 0.1

## OC(c1cc(Oc2ccc(Cl)cc2)nc2c(Cl)cc(Cl)cc12)C1CCCCN1 (stereo unspecified)
[1]
  MfI: 0.8

## NC(=O)c1cc(C(O)C2CCCCN2)c2cccc(C(F)(F)F)c2n1 (stereo unspecified)
[2]
  MfI: Noncurative dose

## Cc1cc(C)c2nc(CC/C=C/c3ccc(Cl)cc3)cc(C(O)C3CCCCN3)c2c1 (stereo unspecified)
[2]
  MfI: Noncurative dose

## OC(c1cc(-c2ccc(Cl)cc2)nc2c1ccc1ccccc12)C1CCCCN1 (stereo unspecified)
[2]
  MfI: Noncurative dose

## Cc1ccc(-c2cc(C(O)C3CCCCN3)c3cccc(C(F)(F)F)c3n2)cc1 (stereo unspecified)
[1]
  MfI: 0.09

## OC(c1cc(-c2ccc(Cl)cc2)nc2c(Cl)cc(Cl)cc12)C1CCCCN1 (stereo unspecified)
[1]
  MfI: 1.29

## OC(c1ccnc2c(Cl)cccc12)C1CCCCN1 (stereo unspecified)
[2]
  MfI: Noncurative dose

## OC(c1cc(C(F)(F)F)nc2c(F)cccc12)C1CCCCN1 (stereo unspecified)
[2]
  MfI: Noncurative dose

## OC(c1cc(C(F)(F)F)nc2c(Cl)cc(Cl)cc12)C1CCCCN1 (stereo unspecified)
[1]
  MfI: 0.17

## Cc1ccc(-c2cc(C(O)C3CCCCN3)c3cccc(C)c3n2)cc1 (stereo unspecified)
[2]
  MfI: Noncurative dose

## OC(c1cc(C(F)(F)F)nc2c1ccc1ccccc12)C1CCCCN1 (stereo unspecified)
[1]
  MfI: 0.13

## OC(c1ccnc2c(Cl)cc(Cl)cc12)C1CCCCN1 (stereo unspecified)
[2]
  MfI: Noncurative dose

## Cc1cc(C)c2nc3c(c(C(O)C4CCCCN4)c2c1)CCC3 (stereo unspecified)
[2]
  MfI: Noncurative dose

## Cc1cc(C)c2nc(-c3ccc(F)cc3)cc(C(O)C3CCCCN3)c2c1 (stereo unspecified)
[1]
  MfI: 0.03

## Cc1cc(C)c2nc(Nc3ccc(Cl)cc3)cc(C(O)C3CCCCN3)c2c1 (stereo unspecified)
[1]
  MfI: 0.03

## COc1ccc(-c2cc(C(O)C3CCCCN3)c3cccc(C(F)(F)F)c3n2)cc1 (stereo unspecified)
[1]
  MfI: 0.07

## Cc1cc(C(O)C2CCCCN2)c2cc(Cl)cc(Cl)c2n1 (stereo unspecified)
[2]
  MfI: Noncurative dose

## COc1ccc(-c2cc(C(O)C3CCCCN3)c3cc(C)cc(C)c3n2)cc1 (stereo unspecified)
[1]
  MfI: 0.03

## OC(c1cc(-c2ccccc2)nc2c1ccc1ccccc12)C1CCCCN1 (stereo unspecified)
[1]
  MfI: 0.1

## OC(c1cc(Oc2ccc(Cl)c(Cl)c2)nc2c(Cl)cc(Cl)cc12)C1CCCCN1 (stereo unspecified)
[1]
  MfI: 0.87

## OC(c1cc(-c2cccc(C(F)(F)F)c2)nc2c(C(F)(F)F)cccc12)C1CCCCN1 (stereo unspecified)
[1]
  MfI: 1.2

## OC(c1cc(-c2ccccc2)nc2c(Cl)cccc12)C1CCCCN1 (stereo unspecified)
[1]
  MfI: 0.05

## OC(c1cc(-c2ccc(Cl)cc2)nc2c(Cl)cccc12)C1CCCCN1 (stereo unspecified)
[2]
  MfI: Noncurative dose

## COc1cc(C(F)(F)F)c2nc(C(F)(F)F)cc(C(O)C3CCCCN3)c2c1 (stereo unspecified)
[1]
  MfI: 0.81

## OC(c1cc(C(F)(F)F)nc2c(Cl)cccc12)C1CCCCN1 (stereo unspecified)
[1]
  MfI: 0.03

## Cc1cccc2c(C(O)C3CCCCN3)cc(-c3ccc(Cl)cc3)nc12 (stereo unspecified)
[1]
  MfI: 0.07

## Cc1cccc2c(C(O)C3CCCCN3)cc(-c3ccc(F)cc3)nc12 (stereo unspecified)
[1]
  MfI: 0.05

## OC(c1cc(-c2ccc(Cl)cc2)nc2c(C(F)(F)F)cccc12)C1CCCCN1 (stereo unspecified)
[1]
  MfI: 0.31

## Cc1cccc2c(C(O)C3CCCCN3)cc(C(F)(F)F)nc12 (stereo unspecified)
[2]
  MfI: Noncurative dose

## Cc1cc(C)c2nc(Oc3ccc(Cl)cc3)cc(C(O)C3CCCCN3)c2c1 (stereo unspecified)
[1]
  MfI: 0.03

## OC(c1ccnc2c(C(F)(F)F)cccc12)C1CCCCN1 (stereo unspecified)
[2]
  MfI: Noncurative dose

## OC(c1cc(C(F)(F)F)nc2c(C(F)(F)F)cccc12)C1CCCCN1 (stereo in doubt; 1a) [MEFLOQUINE]
[1]; 640 mg/kg
  MfI: 1

## OC(c1cc(-c2ccccc2)nc2c(Cl)cc(Cl)cc12)C1CCCCN1 (stereo unspecified)
[1]
  MfI: 0.04

## OC(c1cc(C(F)(F)F)nc2c1cc(Cl)c1ccccc12)C1CCCCN1 (stereo unspecified)
[1]
  MfI: 0.12

## O=C(Nc1cccc(C(F)(F)F)c1)c1cc(C(O)C2CCCCN2)c2cccc(C(F)(F)F)c2n1 (stereo unspecified)
[2]
  MfI: Noncurative dose

## Cc1cc(C)c2nc(C(F)(F)F)cc(C(O)C3CCCCN3)c2c1 (stereo unspecified)
[2]
  MfI: Noncurative dose

## Cc1cccc2c(C(O)C3CCCCN3)cc(-c3ccccc3)nc12 (stereo unspecified)
[2]
  MfI: Noncurative dose

## OC(c1cc(C(F)(F)F)nc2c(C(F)(F)F)cccc12)C1CCCCN1 (stereo in doubt; 1d) [MEFLOQUINE]
[1]; 640 mg/kg
  MfI: 0.81

## OC(c1cc(-c2ccccc2)nc2c(C(F)(F)F)cccc12)C1CCCCN1 (stereo unspecified)
[1]
  MfI: 0.11

Source: ChEMBL document CHEMBL1129401, “Molecular electronic properties of a series of 4-quinolinecarbinolamines define antimalarial activity profile” (1996)
